Test results taken from the NIST ThermoML archive (doi:10.1021/je049612f).

Details: Gas, Vibrating wire viscometry

FS(F)(F)(F)(F)F [sulfur hexafluoride]
Details	viscosity [mPa·s]
321 K, 1893.8 kPa	0.01729
321 K, 1930.7 kPa	0.01734
321 K, 2004.9 kPa	0.01743
321 K, 2041.9 kPa	0.01747
321 K, 2120.4 kPa	0.01758
321 K, 2221.3 kPa	0.01772
321 K, 2270.3 kPa	0.0178
321 K, 2332.7 kPa	0.0179
321 K, 2373.2 kPa	0.01797
321 K, 2451.3 kPa	0.01812
321 K, 2534.7 kPa	0.01826
321 K, 2581.9 kPa	0.01837
321 K, 2629.5 kPa	0.01846
321 K, 2688.1 kPa	0.0186
321 K, 2803.9 kPa	0.01888
321 K, 2873.5 kPa	0.01908
321 K, 2959.1 kPa	0.01932
321 K, 3050 kPa	0.01963
321 K, 3136.6 kPa	0.01995
321 K, 3229.6 kPa	0.02035
321 K, 3282 kPa	0.0206
321 K, 3384.4 kPa	0.02117
321 K, 3445.9 kPa	0.02156
321 K, 3498.8 kPa	0.02195
321 K, 3558.3 kPa	0.02244
321 K, 3606.1 kPa	0.02294
321 K, 3651.4 kPa	0.02346
321 K, 3695.6 kPa	0.02407
321 K, 3729.2 kPa	0.02462
321 K, 3765.4 kPa	0.0253
321 K, 3793.6 kPa	0.026
321 K, 3819.6 kPa	0.02674
321 K, 3858.5 kPa	0.02827
321 K, 3887.8 kPa	0.0299
321 K, 3899.4 kPa	0.03104
321 K, 3910.1 kPa	0.03218
321 K, 3918.4 kPa	0.03355
321 K, 3926.6 kPa	0.03481
321 K, 3933.3 kPa	0.03615
321 K, 3938.4 kPa	0.03743
321 K, 3945.7 kPa	0.03995
321 K, 3950.6 kPa	0.04131
321 K, 3955.4 kPa	0.04272
321 K, 3961 kPa	0.04435
321 K, 3968.8 kPa	0.04638
321 K, 3977 kPa	0.04813
321 K, 3988.3 kPa	0.05018
321 K, 4001.1 kPa	0.05214
321 K, 4020.8 kPa	0.05448
321 K, 4046.8 kPa	0.05683
321 K, 4077.1 kPa	0.05902
321 K, 4112.9 kPa	0.06125
321 K, 4160 kPa	0.0635
321 K, 4223.8 kPa	0.06599
321 K, 4349.4 kPa	0.07
321 K, 4465.5 kPa	0.07305
321 K, 4601.3 kPa	0.07606
321 K, 4740.5 kPa	0.07859
321 K, 4879.1 kPa	0.08093
321 K, 5134 kPa	0.08474
321 K, 5554.1 kPa	0.09001
321 K, 5938 kPa	0.09416
321 K, 6388.7 kPa	0.09845
321 K, 7256.2 kPa	0.1057
321 K, 7905.1 kPa	0.1105
321 K, 8647.5 kPa	0.1154
321 K, 9548.1 kPa	0.1212
321 K, 10352 kPa	0.1258
321 K, 11075 kPa	0.1297
333.15 K, 91.55 kPa	0.01681
333.15 K, 113.58 kPa	0.01682
333.15 K, 142.52 kPa	0.01682
333.15 K, 172.42 kPa	0.01683
333.15 K, 198.48 kPa	0.01684
333.15 K, 218.78 kPa	0.01685
333.15 K, 243.22 kPa	0.01685
333.15 K, 275.2 kPa	0.01686
333.15 K, 294.03 kPa	0.01686
333.15 K, 319.41 kPa	0.01687
333.15 K, 350.89 kPa	0.01688
333.15 K, 378.94 kPa	0.01689
333.15 K, 416.93 kPa	0.0169
333.15 K, 443.4 kPa	0.01691
333.15 K, 479.64 kPa	0.01692
333.15 K, 506.6 kPa	0.01693
333.15 K, 547.64 kPa	0.01694
333.15 K, 590.65 kPa	0.01695
333.15 K, 636.15 kPa	0.01697
333.15 K, 671.18 kPa	0.01698
333.15 K, 717.74 kPa	0.017
333.15 K, 772.31 kPa	0.01703
333.15 K, 837.79 kPa	0.01705
333.15 K, 887.92 kPa	0.01708
333.15 K, 946.43 kPa	0.0171
333.15 K, 1025.7 kPa	0.01715
333.15 K, 1092.5 kPa	0.01718
333.15 K, 1167.4 kPa	0.01723
333.15 K, 1233.2 kPa	0.01727
333.15 K, 1307.8 kPa	0.01732
333.15 K, 1366.9 kPa	0.01737
333.15 K, 1419.7 kPa	0.0174
333.15 K, 1502.8 kPa	0.01746
333.15 K, 1566.4 kPa	0.01751
333.15 K, 1629.7 kPa	0.01757
333.15 K, 1705.8 kPa	0.01763
333.15 K, 1772.9 kPa	0.01769
333.15 K, 1853.5 kPa	0.01778
333.15 K, 1917.4 kPa	0.01783
333.15 K, 1967 kPa	0.0179
333.15 K, 2025.7 kPa	0.01795
333.15 K, 2294.7 kPa	0.01828
333.15 K, 2427.7 kPa	0.01848
333.15 K, 2519.2 kPa	0.01862
333.15 K, 2631.9 kPa	0.0188
333.15 K, 2766.3 kPa	0.01904
333.15 K, 2872 kPa	0.01925
333.15 K, 3008.3 kPa	0.01955
333.15 K, 3089.4 kPa	0.01973
333.15 K, 3195.2 kPa	0.02001
333.15 K, 3306.1 kPa	0.02032
333.15 K, 3398.7 kPa	0.0206
333.15 K, 3504 kPa	0.02097
333.15 K, 3605.1 kPa	0.02135
333.15 K, 3722 kPa	0.02185
333.15 K, 3815.4 kPa	0.02229
333.15 K, 3932.1 kPa	0.02291
333.15 K, 4050.8 kPa	0.0237
333.15 K, 4148.2 kPa	0.02445
333.15 K, 4239.9 kPa	0.02524
333.15 K, 4328.2 kPa	0.02616
333.15 K, 4406.9 kPa	0.02715
333.15 K, 4479.7 kPa	0.02819
333.15 K, 4549.6 kPa	0.02938
333.15 K, 4612.3 kPa	0.03054
333.15 K, 4671.8 kPa	0.03186
333.15 K, 4725.8 kPa	0.03331
333.15 K, 4776.6 kPa	0.03476
333.15 K, 4828.1 kPa	0.03629
333.15 K, 4880.1 kPa	0.03801
333.15 K, 4933.2 kPa	0.03982
333.15 K, 4991.6 kPa	0.0419
333.15 K, 5049 kPa	0.04395
333.15 K, 5109.4 kPa	0.04603
333.15 K, 5178.8 kPa	0.04833
333.15 K, 5254.9 kPa	0.05072
333.15 K, 5343.6 kPa	0.05331
333.15 K, 5447.5 kPa	0.0561
333.15 K, 5567.4 kPa	0.05883
333.15 K, 5709.9 kPa	0.06196
333.15 K, 5869.5 kPa	0.06483
333.15 K, 6098.2 kPa	0.0687
333.15 K, 6338.2 kPa	0.07217
333.15 K, 6627.7 kPa	0.07584
333.15 K, 6950.6 kPa	0.07952
333.15 K, 7378.3 kPa	0.08395
333.15 K, 7900 kPa	0.08869
333.15 K, 8519.8 kPa	0.09355
333.15 K, 9106.8 kPa	0.09795
333.15 K, 9802 kPa	0.1027
333.15 K, 10465 kPa	0.1067
333.15 K, 11412 kPa	0.1122
333.15 K, 12565 kPa	0.1183
350 K, 64.67 kPa	0.01753
350 K, 96.54 kPa	0.01755
350 K, 117.61 kPa	0.01755
350 K, 143.77 kPa	0.01756
350 K, 170.68 kPa	0.01756
350 K, 204.56 kPa	0.01758
350 K, 238.01 kPa	0.01759
